One test concerns p38 MAP kinase. The experiment in a line: p38 MAP kinase phosphorylation immunoblot in CNS stem cells. The format is cell-based, mouse. From the text:
A candidate was p38MAP kinase, known to act downstream of JAK in many cells including CNS stem cells. p38 kinase has been implicated both in differentiation and cell cycle regulation, and recently, inhibition of p38 kinase enabled the proliferation of adult mammalian […] (Engel et al., Genes Dev, 2005). Inhibition of JAK blocked CNTF induced phosphorylation of p38 (FIG. 2g).

Test [1] has as its system adult mouse subventricular zone central nervous system stem cell cultures from wild-type mice. Nature of the test: Survival of adult SVZ stem cell cultures, wild-type mice. It counts as cell-based. On the procedure:
It was determined that adult mouse subventricular zone central nervous system stem cell cultures from wild-type mice respond to D114 by generating twenty-four times more cells, whereas cultures from Hes3 knock-out mice respond to D114 by generating only three times more cells. Thus, in adult mouse neural stem cell cultures, D114 greatly promotes the survival of wild-type cells (23.7±1.7 fold increase), whereas it only slightly stimulates Hes3 knock-out culture survival (2.9±0.2 fold increase).

Another test concerns adult rats. The experiment in a line: Intraventricular infusion in normal adult rats, BrdU labeled cells. The format is in vivo, rat. As to conditions: for concentration in the pump at which maximal effects were achieved: constant FGF2 2.5 μg/ml. On the procedure: In-vivo Experiments: All drugs were infused over one week using an Alzet osmotic pump (model 2001 delivering at a rate of 1 μl/hr for seven days). Briefly, an intracerebral cannula connected to the pump was inserted into the right lateral ventricle using the following stereotaxic coordinates: bregma AP +0, Lateral −1.5 mm dorso-ventral 3.3 mm. Animals received IP injection of the tracer BrdU (50 mg/kg) every 12 hours for 5 days beginning on day one post-operatively to label dividing cells.
Immuno-positive cells were analyzed by confocal microscopy counted using a non-biased system on slides obtained from homologous coronal slices containing the infarct of each animal at the position between +0.2 and −3.8 mm from the center of the bregma according to stereotaxic coordinates. Cells were enumerated in […] regions of interest, on both the ipsilateral and contralateral hemispheres (to cannula, or cannula and ischemic focus): subventricular zone (SVZ), corpus callosum and white matter and the peri-infarct cortex.
The effect of intraventricular administration of Delta-4 was studied in adult rats. As in other tissues, the numbers of stem cells in the adult CNS are precisely controlled. […] In vivo manipulations were designed to ask if Notch ligands can act alone or substantially alter the effect of FGF2 on the numbers of proliferating cells in the SVZ of the normal brain. Animals (N=5-6 per treatment) were fitted with a mini-osmotic pump administering artificial cerebrospinal fluid (ACSF, vehicle), FGF2, Delta-4, or a combination FGF2+Delta-4 for one week into the ventricles of three-month old rats. Animals were also given twice-daily injections of bromodeoxyuridine (BrdU) from post-op days two to six to label cells generated during this time window. Two groups of animals were analyzed at day 7 and day 45 relative to the initiation of protein delivery. Delta-4 doses were chosen to provide a roughly equal concentration in the rat adult cerebrospinal fluid as in the cell culture medium of our in vitro experiments.
(Incorporation of labelled thymidine or its analogues reports DNA synthesis.)

With `CC(C)(C)c1nc2c3ccc(F)cc3c3c(=O)[nH]ccc3c2[nH]1` [JAK Inhibitor, 2-(1,1-Dimethylethyl)-9-fluoro-3,6-dihydro-7H-benz[h]-imidaz[4,5-f]isoquinolin-7-one], the “phosphorylation of p38 MAP kinase at Thr180/Tyr182” value in the test with p38 MAP kinase is “reduced the levels of phosphorylation”.
For “Delta-4: soluble Notch ligand Delta-4 (1389-D4) from R&D”, the “survival, fold increase in cells” value in test [1] was determined as 23.7±1.7 fold. For the same compound, in the test with adult rats (45 days, relative to FGF2 treated animals), the “number of BrdU+ cells in SVZ, corpus callosum and cerebral cortex” value is reported as “increased number of BrdU+ cells”. The entries for the “concentration in the pump at which maximal effects were achieved” value with adult rats (contralateral site) and with adult rats (ipsilateral site) were roughly 4.2 µg/mL and “approximately 0.42 μg/ml”, respectively. For the same compound, the “number of proliferating cells / BrdU incorporation” value with adult rats (day 7, contralateral site) is reported as “induced significant increases in BrdU incorporation”. Also, in the test with adult rats (day 7, hemisphere ipsilateral to the cannula), the “number of BrdU labeled cells in SVZ, corpus callosum and cortex” value is reported as “increased the number of BrdU labeled cells”.

Values taken from US20080242594A1, “Methods for Promoting Stem Cell Proliferation and Survival” (priority 2005, published 2008).
